The text below walks through data of ChEMBL document CHEMBL1201862, “PubChem BioAssay data set” (2004).

The source made the active and inactive calls. Where only a bound is given, the exact number is not on record here.

In one assay the target is Large T antigen (Simian virus 40, UniProt P03070). The assay is classed as functional, Betapolyomavirus macacae.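 Also: Confirmatory-stage PubChem screen for compounds that inhibit SV40 T antigen.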
Assay [1] has as its target Serine/threonine-protein kinase SIK2 (Homo sapiens, UniProt Q9H0K1). As to the kind of experiment: Navigating the Kinome. Panel member name: SIK2. The assay is classed as functional.
Assay [2] deals with Calcium/calmodulin-dependent protein kinase kinase 2 (Homo sapiens, UniProt Q96RR4). As to the kind of experiment: Navigating the Kinome. Panel member name: CAMKK2. In kind it is functional.
The target of assay [3] is MAP/microtubule affinity-regulating kinase 3 (Homo sapiens, UniProt P27448). In kind it is functional.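 Also: MARK3 affinity measured as one member of a kinome panel.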
Assay [4] has as its target Mast/stem cell growth factor receptor Kit (Homo sapiens, UniProt P10721). The assay is classed as functional.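 Also: KIT entry within a kinase panel assay.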
Assay [5] addresses Mitogen-activated protein kinase 10 (Homo sapiens, UniProt P53779). The assay can be described thus: Navigating the Kinome. Panel member name: MAPK10. In kind it is functional.
Assay [6] deals with Proto-oncogene tyrosine-protein kinase ROS (Homo sapiens, UniProt P08922). The assay is classed as functional.
For assay [7], the target named is Mitogen-activated protein kinase kinase kinase 10 (Homo sapiens, UniProt Q02779). The assay can be described thus: Navigating the Kinome. Panel member name: MAP3K10. In kind it is functional.
Assay [8] concerns the target T1, Heat shock factor protein 1 (Mus musculus, UniProt P38532).
T1 sequence (P38532 whole entry): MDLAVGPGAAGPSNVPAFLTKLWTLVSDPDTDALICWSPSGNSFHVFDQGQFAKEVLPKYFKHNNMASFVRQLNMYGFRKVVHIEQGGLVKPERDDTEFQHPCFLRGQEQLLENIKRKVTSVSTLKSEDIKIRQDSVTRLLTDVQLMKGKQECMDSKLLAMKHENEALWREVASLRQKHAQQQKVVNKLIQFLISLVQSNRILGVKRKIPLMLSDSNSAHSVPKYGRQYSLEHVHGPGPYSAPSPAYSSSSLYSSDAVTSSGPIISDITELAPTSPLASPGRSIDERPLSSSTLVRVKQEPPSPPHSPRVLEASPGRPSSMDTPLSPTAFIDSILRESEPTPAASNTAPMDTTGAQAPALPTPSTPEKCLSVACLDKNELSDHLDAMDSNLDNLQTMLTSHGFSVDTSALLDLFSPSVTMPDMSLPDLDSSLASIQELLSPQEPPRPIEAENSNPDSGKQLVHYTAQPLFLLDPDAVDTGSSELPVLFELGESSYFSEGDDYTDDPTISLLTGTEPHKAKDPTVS
The assay can be described thus: HSF1 potentiators in luciferase reporter cells, confirmation, cell-based, NIH3T3, luminescence, dose retest (AID 435004).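 Also: stress induced by proteasome inhibitor MG132 added 30 min after compound; luciferase reporter driven by HSF1 response element in NIH3T3 cells; actives raise luminescence as potentiators of the MG132 stress response.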 The assay is classed as functional. For orientation: In a reporter assay the amount or activity of a reporter protein is the signal.

The target of assay [9] is T2, Sentrin-specific protease 8 (Homo sapiens, UniProt Q96LD8).
T2 sequence (Q96LD8 whole entry): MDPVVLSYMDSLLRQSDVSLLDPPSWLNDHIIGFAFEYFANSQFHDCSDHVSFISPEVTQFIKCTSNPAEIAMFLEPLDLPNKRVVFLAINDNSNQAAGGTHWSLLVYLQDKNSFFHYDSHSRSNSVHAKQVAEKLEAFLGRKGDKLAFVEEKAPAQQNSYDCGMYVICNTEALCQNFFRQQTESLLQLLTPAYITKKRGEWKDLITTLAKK
In kind it is functional.

Assay [10] addresses Mitochondrial peptide methionine sulfoxide reductase (Bos taurus, UniProt P54149). As to the kind of experiment: Absorbance-based biochemical high throughput dose response assay for activators of Methionine sulfoxide reductase A (MsrA). The assay is classed as functional.
The next assay has as its target T3, Protein RecA (Mycobacterium tuberculosis, UniProt P9WHJ3).
T3 sequence (P9WHJ3 whole entry): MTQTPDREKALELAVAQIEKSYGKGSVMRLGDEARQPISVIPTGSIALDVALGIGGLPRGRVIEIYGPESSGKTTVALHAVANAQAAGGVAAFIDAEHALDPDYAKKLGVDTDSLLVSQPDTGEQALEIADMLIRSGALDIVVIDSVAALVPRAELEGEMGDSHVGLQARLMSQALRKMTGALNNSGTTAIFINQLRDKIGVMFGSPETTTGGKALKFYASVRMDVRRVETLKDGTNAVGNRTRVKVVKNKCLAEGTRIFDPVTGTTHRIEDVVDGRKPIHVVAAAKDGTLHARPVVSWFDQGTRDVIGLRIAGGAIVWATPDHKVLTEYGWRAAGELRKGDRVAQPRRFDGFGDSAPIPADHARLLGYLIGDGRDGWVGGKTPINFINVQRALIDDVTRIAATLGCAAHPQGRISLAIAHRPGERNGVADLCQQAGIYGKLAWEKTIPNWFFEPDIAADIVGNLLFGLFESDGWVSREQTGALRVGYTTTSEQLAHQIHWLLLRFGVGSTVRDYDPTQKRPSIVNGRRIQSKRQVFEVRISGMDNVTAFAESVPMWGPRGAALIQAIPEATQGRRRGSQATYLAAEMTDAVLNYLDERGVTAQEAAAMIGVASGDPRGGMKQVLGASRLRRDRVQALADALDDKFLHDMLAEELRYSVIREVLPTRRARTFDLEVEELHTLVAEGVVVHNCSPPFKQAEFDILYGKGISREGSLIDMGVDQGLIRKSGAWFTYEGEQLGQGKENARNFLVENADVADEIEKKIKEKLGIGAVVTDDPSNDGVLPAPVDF
As to the kind of experiment: Fluorescence Cell-Free Homogeneous Dose Retest to Identify Inhibitors of RecA-Intein Splicing Activity. [Related pubchem assays (depositor defined):AID2097, AID2223, AID489010, AID492950]. In kind it is functional.

A further assay deals with T4, Caspase-6 (Homo sapiens, UniProt P55212).
T4 sequence (P55212 whole entry): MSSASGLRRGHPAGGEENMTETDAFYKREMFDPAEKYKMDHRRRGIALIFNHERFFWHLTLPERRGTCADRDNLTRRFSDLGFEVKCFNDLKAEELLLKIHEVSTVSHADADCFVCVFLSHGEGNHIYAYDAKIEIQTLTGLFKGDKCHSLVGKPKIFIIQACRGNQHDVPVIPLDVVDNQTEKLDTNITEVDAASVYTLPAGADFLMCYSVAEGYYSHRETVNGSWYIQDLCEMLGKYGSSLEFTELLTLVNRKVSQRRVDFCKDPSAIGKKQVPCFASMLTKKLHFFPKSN
The assay can be described thus: human caspase-6 inhibitors, dose response, biochemical, VEID-R110 fluorescence, cherry-pick (AID 720632).

The next assay has as its system Saccharomyces cerevisiae. The assay can be described thus: NALP1 inhibitor project selectivity study, Caspase-1/ASC signal blockade IC50 in S. cerevisiae (AID 488863). The assay is classed as functional, organism-based.
Assay [11] concerns the target Serine/threonine-protein kinase 17A (Homo sapiens, UniProt Q9UEE5). The assay is classed as functional.
Assay [12] has as its target Mitogen-activated protein kinase kinase kinase kinase 5 (Homo sapiens, UniProt Q9Y4K4). The assay is classed as functional.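 Also: measured as one member of a kinome-spanning kinase panel.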
The target of assay [13] is Cell division cycle 7-related protein kinase (Homo sapiens, UniProt O00311). In kind it is functional.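 Also: value obtained from a kinome-wide kinase panel.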
The target in another assay is Misshapen-like kinase 1 (Homo sapiens, UniProt Q8N4C8). In kind it is functional.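 Also: kinome panel screen with MINK as the panel member.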
For assay [14], the target named is Calcium/calmodulin-dependent protein kinase type II subunit delta (Homo sapiens, UniProt Q13557). In kind it is functional.

Chain of Mitogen-activated protein kinase kinase kinase kinase 5 (Q9Y4K4 whole entry): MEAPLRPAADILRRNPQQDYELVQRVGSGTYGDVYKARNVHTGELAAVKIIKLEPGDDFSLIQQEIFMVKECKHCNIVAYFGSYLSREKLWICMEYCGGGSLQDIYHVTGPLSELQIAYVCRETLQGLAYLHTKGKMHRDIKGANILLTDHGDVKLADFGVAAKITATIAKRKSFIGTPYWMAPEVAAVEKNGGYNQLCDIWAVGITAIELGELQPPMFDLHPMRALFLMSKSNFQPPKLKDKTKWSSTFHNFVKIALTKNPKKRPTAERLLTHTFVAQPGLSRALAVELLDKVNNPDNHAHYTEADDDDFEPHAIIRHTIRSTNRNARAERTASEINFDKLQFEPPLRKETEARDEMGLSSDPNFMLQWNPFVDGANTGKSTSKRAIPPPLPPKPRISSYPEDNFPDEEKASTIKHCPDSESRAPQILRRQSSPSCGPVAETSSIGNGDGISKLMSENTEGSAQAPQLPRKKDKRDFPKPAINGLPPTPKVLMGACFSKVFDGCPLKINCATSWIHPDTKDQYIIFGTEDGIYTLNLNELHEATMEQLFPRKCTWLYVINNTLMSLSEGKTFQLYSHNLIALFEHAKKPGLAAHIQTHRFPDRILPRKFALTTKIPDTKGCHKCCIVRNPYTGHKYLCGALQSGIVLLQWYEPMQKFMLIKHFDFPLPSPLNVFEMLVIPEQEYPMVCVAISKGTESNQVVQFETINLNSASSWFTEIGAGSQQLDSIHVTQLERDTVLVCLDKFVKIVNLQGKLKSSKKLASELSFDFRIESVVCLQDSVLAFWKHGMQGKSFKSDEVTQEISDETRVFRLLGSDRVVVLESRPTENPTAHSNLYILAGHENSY
Chain of Cell division cycle 7-related protein kinase (O00311 whole entry): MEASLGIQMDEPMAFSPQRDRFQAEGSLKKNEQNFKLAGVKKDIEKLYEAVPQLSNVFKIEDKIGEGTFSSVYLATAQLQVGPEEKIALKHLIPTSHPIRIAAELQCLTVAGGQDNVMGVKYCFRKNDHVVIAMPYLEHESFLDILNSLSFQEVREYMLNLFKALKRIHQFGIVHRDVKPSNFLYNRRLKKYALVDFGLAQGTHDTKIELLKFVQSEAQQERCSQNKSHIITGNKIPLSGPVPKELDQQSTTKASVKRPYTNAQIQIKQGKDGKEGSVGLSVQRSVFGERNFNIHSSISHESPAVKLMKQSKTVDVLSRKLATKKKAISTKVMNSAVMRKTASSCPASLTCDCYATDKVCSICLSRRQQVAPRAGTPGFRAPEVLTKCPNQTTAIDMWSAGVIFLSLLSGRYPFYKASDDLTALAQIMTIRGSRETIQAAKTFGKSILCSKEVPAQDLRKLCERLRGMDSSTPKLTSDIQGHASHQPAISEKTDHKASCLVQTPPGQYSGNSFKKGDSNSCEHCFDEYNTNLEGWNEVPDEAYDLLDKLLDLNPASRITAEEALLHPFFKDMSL
Chain of Mast/stem cell growth factor receptor Kit (P10721 whole entry): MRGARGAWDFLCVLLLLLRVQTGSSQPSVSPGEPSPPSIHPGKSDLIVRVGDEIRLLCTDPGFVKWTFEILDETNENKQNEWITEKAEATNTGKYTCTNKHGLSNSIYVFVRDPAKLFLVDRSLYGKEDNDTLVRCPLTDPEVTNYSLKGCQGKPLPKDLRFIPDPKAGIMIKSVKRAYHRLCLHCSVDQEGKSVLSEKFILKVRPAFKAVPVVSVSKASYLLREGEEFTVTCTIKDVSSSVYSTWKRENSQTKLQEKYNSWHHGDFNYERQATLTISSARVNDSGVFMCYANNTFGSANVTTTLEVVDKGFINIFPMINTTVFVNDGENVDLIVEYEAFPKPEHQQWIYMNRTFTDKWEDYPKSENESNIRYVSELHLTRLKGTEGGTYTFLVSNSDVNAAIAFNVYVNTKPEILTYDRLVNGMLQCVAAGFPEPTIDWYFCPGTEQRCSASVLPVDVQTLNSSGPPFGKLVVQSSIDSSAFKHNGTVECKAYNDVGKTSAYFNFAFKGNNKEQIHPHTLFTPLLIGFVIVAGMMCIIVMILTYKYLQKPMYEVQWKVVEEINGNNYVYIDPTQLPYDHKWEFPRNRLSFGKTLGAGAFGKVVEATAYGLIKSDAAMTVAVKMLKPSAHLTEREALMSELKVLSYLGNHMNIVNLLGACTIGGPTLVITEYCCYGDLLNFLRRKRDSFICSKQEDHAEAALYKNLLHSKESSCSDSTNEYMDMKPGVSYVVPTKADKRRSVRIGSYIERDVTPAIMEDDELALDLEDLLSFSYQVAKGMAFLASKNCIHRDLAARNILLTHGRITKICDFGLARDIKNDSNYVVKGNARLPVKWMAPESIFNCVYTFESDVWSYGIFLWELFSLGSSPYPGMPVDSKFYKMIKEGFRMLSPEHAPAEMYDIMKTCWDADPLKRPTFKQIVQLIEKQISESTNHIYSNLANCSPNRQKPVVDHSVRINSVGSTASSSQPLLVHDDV
Chain of Misshapen-like kinase 1 (Q8N4C8 whole entry): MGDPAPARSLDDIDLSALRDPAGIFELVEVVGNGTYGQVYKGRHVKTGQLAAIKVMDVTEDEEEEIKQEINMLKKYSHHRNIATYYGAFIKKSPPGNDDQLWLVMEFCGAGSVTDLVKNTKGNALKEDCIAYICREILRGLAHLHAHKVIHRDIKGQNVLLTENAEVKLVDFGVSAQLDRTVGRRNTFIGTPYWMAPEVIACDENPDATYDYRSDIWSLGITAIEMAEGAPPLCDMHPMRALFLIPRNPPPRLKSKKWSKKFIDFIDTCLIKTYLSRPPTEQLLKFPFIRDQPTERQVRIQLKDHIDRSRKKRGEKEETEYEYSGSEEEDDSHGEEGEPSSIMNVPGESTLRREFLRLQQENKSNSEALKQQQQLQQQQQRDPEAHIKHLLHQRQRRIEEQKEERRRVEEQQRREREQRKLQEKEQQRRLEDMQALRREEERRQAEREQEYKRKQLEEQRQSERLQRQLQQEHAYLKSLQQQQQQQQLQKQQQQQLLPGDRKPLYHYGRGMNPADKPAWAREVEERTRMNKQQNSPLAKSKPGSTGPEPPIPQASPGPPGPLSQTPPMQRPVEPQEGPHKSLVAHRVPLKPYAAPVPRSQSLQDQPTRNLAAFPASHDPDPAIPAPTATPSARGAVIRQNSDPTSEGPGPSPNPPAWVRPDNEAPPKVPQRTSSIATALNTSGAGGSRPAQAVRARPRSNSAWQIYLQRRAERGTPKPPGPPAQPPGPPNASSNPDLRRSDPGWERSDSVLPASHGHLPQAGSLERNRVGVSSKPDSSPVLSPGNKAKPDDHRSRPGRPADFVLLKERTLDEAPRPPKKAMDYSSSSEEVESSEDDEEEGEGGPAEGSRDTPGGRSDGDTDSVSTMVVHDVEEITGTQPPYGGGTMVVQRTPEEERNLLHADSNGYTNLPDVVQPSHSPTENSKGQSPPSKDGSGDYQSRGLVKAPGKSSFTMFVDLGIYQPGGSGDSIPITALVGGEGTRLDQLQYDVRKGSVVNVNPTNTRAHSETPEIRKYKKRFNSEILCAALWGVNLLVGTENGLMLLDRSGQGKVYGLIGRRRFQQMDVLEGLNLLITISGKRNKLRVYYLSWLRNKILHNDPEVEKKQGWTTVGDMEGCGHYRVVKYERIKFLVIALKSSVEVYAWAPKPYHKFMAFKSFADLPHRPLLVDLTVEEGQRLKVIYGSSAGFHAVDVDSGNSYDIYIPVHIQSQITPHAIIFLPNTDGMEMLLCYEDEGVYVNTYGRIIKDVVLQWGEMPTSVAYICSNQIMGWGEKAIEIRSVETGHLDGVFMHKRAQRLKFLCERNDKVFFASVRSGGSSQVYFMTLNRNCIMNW
Chain of Mitogen-activated protein kinase 10 (P53779 whole entry): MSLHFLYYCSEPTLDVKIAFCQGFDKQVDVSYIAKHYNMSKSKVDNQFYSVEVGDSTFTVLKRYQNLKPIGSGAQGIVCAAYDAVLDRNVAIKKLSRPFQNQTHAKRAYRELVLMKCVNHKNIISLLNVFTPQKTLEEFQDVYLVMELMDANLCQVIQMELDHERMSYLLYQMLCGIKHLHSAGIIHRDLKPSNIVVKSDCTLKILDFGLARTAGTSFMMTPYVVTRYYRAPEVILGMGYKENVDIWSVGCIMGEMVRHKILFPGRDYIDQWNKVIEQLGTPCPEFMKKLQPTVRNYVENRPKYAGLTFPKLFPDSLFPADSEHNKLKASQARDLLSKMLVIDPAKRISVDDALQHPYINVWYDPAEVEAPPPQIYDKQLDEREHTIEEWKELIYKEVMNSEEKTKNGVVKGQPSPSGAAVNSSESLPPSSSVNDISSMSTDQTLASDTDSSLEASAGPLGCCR
Chain of Mitochondrial peptide methionine sulfoxide reductase (P54149 whole entry): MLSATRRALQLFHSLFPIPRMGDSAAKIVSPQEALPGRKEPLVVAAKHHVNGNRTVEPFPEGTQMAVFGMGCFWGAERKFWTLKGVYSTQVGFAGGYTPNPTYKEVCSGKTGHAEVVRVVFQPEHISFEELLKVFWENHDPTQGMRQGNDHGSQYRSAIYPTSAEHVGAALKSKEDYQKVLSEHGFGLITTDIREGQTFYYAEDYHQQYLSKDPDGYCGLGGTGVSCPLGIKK
Chain of Calcium/calmodulin-dependent protein kinase kinase 2 (Q96RR4 whole entry): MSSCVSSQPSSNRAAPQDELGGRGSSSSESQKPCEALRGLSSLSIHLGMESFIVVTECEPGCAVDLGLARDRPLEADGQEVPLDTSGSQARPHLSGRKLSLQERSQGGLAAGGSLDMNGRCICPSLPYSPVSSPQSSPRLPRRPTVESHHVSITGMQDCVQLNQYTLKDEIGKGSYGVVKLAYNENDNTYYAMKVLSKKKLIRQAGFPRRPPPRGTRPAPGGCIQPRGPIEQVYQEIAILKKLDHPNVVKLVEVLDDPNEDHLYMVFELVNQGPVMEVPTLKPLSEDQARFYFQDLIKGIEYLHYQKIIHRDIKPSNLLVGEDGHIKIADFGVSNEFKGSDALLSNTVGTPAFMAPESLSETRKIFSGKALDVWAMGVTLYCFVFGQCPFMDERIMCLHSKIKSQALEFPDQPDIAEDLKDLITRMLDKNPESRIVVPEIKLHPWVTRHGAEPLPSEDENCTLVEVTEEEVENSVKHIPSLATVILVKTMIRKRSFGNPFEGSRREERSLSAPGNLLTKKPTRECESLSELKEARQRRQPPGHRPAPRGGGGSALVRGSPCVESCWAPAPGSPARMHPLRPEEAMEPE

For the molecule `Oc1ccc(-c2nc(-c3ccncc3)c(-c3ccc(F)cc3)[nH]2)cc1` [SB-202190], the half-maximal inhibitory concentration (IC50) at Large T antigen is 4.87 µM (active). In addition, the Ki in [1] is > 3.98 µM (inactive); in assay [2] it was > 2.51 µM (inactive); in [3], > 5.01 µM (inactive); in [4] it was > 6.31 µM (inactive); in [5] it was 63.1 nM (active); in [6], 2.51 µM (active). For the same molecule, the Ki in assay [7] was > 3.16 µM (inactive).
Consider `c1ccc2nc3cc4[nH]cnc4cc3nc2c1`, for which the results for the EC50 (in assay [8]; in assay [10]; at Protein RecA) were 15.5 µM (active), 53 µM (inactive) and 29.6 µM (inconclusive), respectively. The IC50 in assay [9] was 12.5 µM (active); in the assay on Saccharomyces cerevisiae, 32.7 µM (active). In addition, the concentration at half-maximal activity (AC50) at Caspase-6 is 33 µM (active).
On to `CCCCC(=O)Nc1cc(-c2c[nH]c3ncccc23)cc(Cl)n1`, for which the Ki in assay [11] was > 3.16 µM (inactive); in assay [12], > 3.98 µM (inactive); in assay [13], 0.501 nM (active); on Misshapen-like kinase 1 it was > 2.51 µM (inactive); in [14] it was > 3.16 µM (inactive).

The term IC50 denotes the concentration at which inhibition is half-maximal. By Ki is commonly meant a dissociation constant, usually derived from enzyme kinetics or from competition with a known ligand. Broadly, the EC50 is the concentration that produces a half-maximal response. The term AC50 denotes the concentration giving half of the maximal activity seen.
